Here are results for 2 compounds from patent US6407134B1, “Heterocyclecarbonyl amino acid hydroxyethylamino sulfonamide retroviral protease inhibitors” (G. D. Searle & Co., priority 1995, dated 2002).

SMILES strings stand for the structures. Where two headings read alike, the source gives them in different places.

Broadly, the EC50 is the concentration at which the effect is half-maximal. A lower EC50 goes with greater potency. As usually defined, the IC50 is the point on the concentration scale where inhibition reaches its midpoint.

Assay [1] concerns HIV-1 in CEM cells. The experiment in a line: CEM cell assay: HIV inhibition in acutely infected cells, tetrazolium (MTT) based colorimetric assay. Conditions: Human immunodeficiency virus 1, CCRF-CEM, 168 h; CEM cells acutely infected with HIV-1, 7 days, MTT readout. Here is the method:
The effectiveness of various compounds were determined in the above-described enzyme assay and in a CEM cell assay.
The HIV inhibition assay method of acutely infected cells is an automated tetrazolium based colorimetric assay essentially that reported by Pauwles et al, J. Virol. Methods, 20, 309-321 (1988). Assays were performed in 96-well tissue culture plates. CEM cells, a CD4+ cell line, were grown in RPMI-1640 medium (Gibco) supplemented with a 10% fetal calf serum and were then treated with polybrene (2 μg/ml). An 80 μl volume of medium containing 1×10^4 cells was dispensed into each well of the tissue culture plate. To each well was added a 100 μl volume of test compound dissolved in tissue culture medium (or medium without test compound as a control) to achieve the desired final concentration and the cells were incubated at 37° C. for 1 hour. […] Likewise, the intrinsic toxicity of the test compound was determined by adding medium without virus to several wells containing test compound. […]
Following the addition of virus, cells were incubated at 37° C. in a humidified, 5% CO2 atmosphere for 7 days. […] The absorbance at 590 nm was determined for each sample using a Molecular Devices microplate reader. Absorbance values for each set of wells is compared to assess viral control infection, uninfected control cell response as well as test compound by cytotoxicity and antiviral efficacy.

The target of assay [2] is T1, HIV protease (Human immunodeficiency virus type 1 group M subtype B, UniProt P04585).
T1 construct: HIV protease is diluted in the assay buffer to a final enzyme concentration of 12.3 nanomolar, based on a molecular weight of 10,780
The experiment in a line: HIV protease enzyme assay (fluorescence, substrate 2-Ile-Nle-Phe(p-NO2)-Gln-ArgNH2). It counts as biochemical. The text has this: The compounds of the present invention are effective HIV protease inhibitors. Utilizing an enzyme assay as described below, the compounds set forth in the examples herein disclosed inhibited the HIV enzyme. The preferred compounds of the present invention and their calculated IC50 (inhibiting concentration 50%, i.e., the concentration at which the inhibitor compound reduces enzyme activity by 50%) values are shown in Table 10. The enzyme method is described below. The substrate is 2-Ile-Nle-Phe(p-NO2)-Gln-ArgNH2. The positive control is MVT-101 (Miller, M. et al, Science, 246, 1149 (1989)] The assay conditions are as follows:
20 mM sodium phosphate, pH 6.4
The above described substrate is dissolved in DMSO, then diluted 10 fold in assay buffer. Final substrate concentration in the assay is 80 μM. HIV protease is diluted in the assay buffer to a final enzyme concentration of 12.3 nanomolar, based on a molecular weight of 10,780.
The final concentration of DMSO is 14% and the final concentration of glycerol is 18%. The test compound is dissolved in DMSO and diluted in DMSO to 10× the test concentration; 10 μl of the enzyme preparation is added, the materials mixed and then the mixture is incubated at ambient temperature for 15 minutes. […] The increase in fluorescence is monitored at 4 time points (0, 8, 16 and 24 minutes) at ambient temperature. […]

In assay [1], `CC(C)CN(C[C@@H](O)[C@H](Cc1ccccc1)NC(=O)[C@@H](NC(=O)[C@@H]1CCCN1)C(C)(C)C)S(=O)(=O)c1ccc2c(c1)OCO2` [Entry 1] displayed an EC50 of 12 nM. In assay [2], this compound registered an IC50 of 2 nM.
With `CCC(C)[C@H](NC(=O)[C@@H]1CCCN1)C(=O)N[C@@H](Cc1ccccc1)[C@H](O)CN(CC(C)C)S(=O)(=O)c1ccc2c(c1)OCO2` (stereo partly drawn) [Entry 2], the IC50 in assay [2] (HIV protease 12.3 nanomolar, substrate 80 μM, pH 6.4, ambient temperature, read-out: IC50) worked out at 3 nM.
